Test results from patent US7674807B2, “Heterocycle-substituted n-phenyl-phthalamide derivatives, related compounds and their use as insecticides” (Bayer CropScience AG, priority 2004, dated 2010).

Tests used:
[1] = test system: larva of Spodoptera litura; assay: Test against larva of Spodoptera litura (leaf dip, sweet potato leaves); format: in vivo; details: 20 ppm concentration of the active component; third instar larvae; counted after 7 days; 25° C.
How it was run: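 Sweet potato leaves were dipped in emulsified compound diluted with water, air-dried, and given to 10 third-instar larvae per dish at 25° C, with fresh leaves added on days 2 and 4. Mortality was counted after 7 days and averaged over 2 dishes.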

[2] = test system: larva of Cnaphalocrocis medinalis Guenee; assay: Test against larva of Cnaphalocrocis medinalis Guenee (sprayed paddy rice foliage); format: in vivo; details: 20 ppm concentration of the active component; second instar larvae; counted after 7 days; 25° C.
How it was run: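 Potted rice (Tamanishiki) sprayed with aqueous dilutions of compound at the prescribed concentration; air-dried leaf pieces placed in dishes with five 2nd-instar larvae at 25° C, fresh treated foliage added at days 2 and 4. Mortality counted at day 7, averaged over 2 dishes.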

SMILES	controlling effect, rate of death [1] [%]	controlling effect, rate of death [2] [%]
Cc1cc(Cn2nc(C(F)(F)F)nc2C(F)(F)F)ccc1NC(=O)c1cccc(I)c1C(=O)NC(C)(C)C[S+](C)[O-] (centres unmarked) [compound 212]	100	100
CSCC(C)(C)NC(=O)c1c(I)cccc1C(=O)Nc1ccc(Cn2nc(C(F)(F)F)cc2C(F)(F)F)cc1C [compound 82, N^1-[4-(3,5-bistrifluoromethylpyrazol-1-ylmethyl)-2-methylphenyl]-N^2-(1,1-dimethyl-2-methylsulfanylethyl)-3-iodophthalamide]	100	100
Cc1cc(Cn2nc(C(F)(F)C(F)(F)F)nc2C(F)(F)F)ccc1NC(=O)c1cccc(I)c1C(=O)NC(C)CS(C)(=O)=O (centres unmarked) [compound 230]	100	100
Cc1cc(Cn2nc(C(F)(F)F)cc2C(F)(F)F)ccc1NC(=O)c1cccc(Cl)c1C(=O)NC(C)CS(C)(=O)=O (racemic) [compound 15]	100	100
CSC[C@H](C)NC(=O)c1c(I)cccc1C(=O)Nc1ccc(Cn2cc(C(F)(F)C(F)(F)C(F)(F)C(F)(F)F)c(C(F)(F)C(F)(F)F)n2)cc1C [compound 664]	100	100
CSC[C@H](C)NC(=O)c1c(I)cccc1C(=O)Nc1ccc(Cn2cc(C(F)(F)C(F)(F)C(F)(F)C(F)(F)F)c(C(F)(F)F)n2)cc1C [compound 648]	100	100
CSC[C@H](C)NC(=O)c1c(Cl)cccc1C(=O)Nc1ccc(Cn2nc(C(F)(F)C(F)(F)F)cc2C(F)(F)C(F)(F)F)cc1C [compound 626]	100	100
Cc1cc(-c2cc(OC(F)F)n(C(F)F)n2)ccc1NC(=O)c1cccc(I)c1C(=O)NC(C)CS(C)(=O)=O (centres unmarked) [compound 520]	100	100
Cc1cc(Cn2nc(C(F)(F)C(F)(F)F)nc2C(F)(F)F)ccc1NC(=O)c1cccc(Cl)c1C(=O)NC(C)(C)C[S+](C)[O-] (centres unmarked) [compound 150]	100	100
Cc1cc(Cn2cc(C(F)(F)C(F)(F)C(F)(F)C(F)(F)F)c(C(F)(F)F)n2)ccc1NC(=O)c1cccc(Cl)c1C(=O)N[C@@H](C)CS(C)(=O)=O [compound 647]	100	100
Cc1cc(Cn2nc(C(F)(F)F)nc2C(F)(F)F)ccc1NC(=O)c1cccc(I)c1C(=O)NC(C)CS(C)(=O)=O (centres unmarked) [compound 219]	100	100
Cc1cc(Cn2cc(C(F)(F)C(F)(F)F)c(C(F)(F)C(F)(F)F)n2)ccc1NC(=O)c1cccc(I)c1C(=O)N[C@@H](C)CS(C)(=O)=O [compound 656]	100	100
Cc1cc(Cn2nc(C(F)(F)C(F)(F)F)nc2C(F)(F)F)ccc1NC(=O)c1cccc(I)c1C(=O)NC(C)CS(C)(=O)=O (centres unmarked) [compound 231]	100	100
Cc1cc(Cn2cc(C(F)(F)C(F)(F)C(F)(F)F)c(C(F)(F)C(F)(F)F)n2)ccc1NC(=O)c1cccc(Cl)c1C(=O)N[C@@H](C)C[S+](C)[O-] (some centres unmarked) [compound 658]	100	100
Cc1cc(Cn2cc(C(F)(F)C(F)(F)F)c(C(F)(F)F)n2)ccc1NC(=O)c1cccc(I)c1C(=O)N[C@@H](C)CS(C)(=O)=O [compound 642]	100	100
Cc1cc(-n2nc(C(F)(F)F)cc2C(F)(F)F)ccc1NC(=O)c1cccc(Cl)c1C(=O)NC(C)CS(C)(=O)=O (centres unmarked) [compound 322]	100	100
Cc1cc(Cn2nc(C(F)(F)F)nc2C(F)(F)F)ccc1NC(=O)c1cccc(Cl)c1C(=O)NC(C)C[S+](C)[O-] (centres unmarked) [compound 143]	100	100
CSCC(C)NC(=O)c1c(I)cccc1C(=O)Nc1ccc(Cc2c(OC(F)F)nn(C(F)F)c2C(F)(F)F)cc1C (centres unmarked) [compound 268]	100	100
Cc1cc(Cn2nc(C(F)(F)F)cc2C(F)(F)F)ccc1NC(=O)c1cccc(I)c1C(=O)NC(C)C [compound 81]	100	100

SMILES	controlling effect, rate of death [1] [%]	controlling effect, rate of death [2] [%]
Cc1cc(Cn2nc(C(F)(F)F)cc2C(F)(F)F)ccc1NC(=O)c1cccc(I)c1C(=O)NC(C)CS(C)(=O)=O (centres unmarked) [compound 90]	100	100
CSCC(C)NC(=O)c1c(I)cccc1C(=O)Nc1ccc(Cn2nc(C(F)(F)C(F)(F)F)nc2C(F)(F)F)cc1C (centres unmarked) [compound 227]	100	100
CSCC(C)NC(=O)c1c(I)cccc1C(=O)Nc1ccc(-c2cc(C(F)(F)F)nn2C(F)F)cc1C (centres unmarked) [compound 512]	100	100
Cc1cc(C(C)n2nc(C(F)(F)F)cc2C(F)(F)F)ccc1NC(=O)c1cccc(I)c1C(=O)N[C@@H](C)C[S+](C)[O-] (some centres unmarked) [compound 563]	100	100
CSCC(C)NC(=O)c1c(I)cccc1C(=O)Nc1ccc(Cn2nc(C(F)(F)F)cc2C(F)(F)F)cc1C (centres unmarked) [compound 86]	100	100
Cc1cc(Cn2nc(C(F)(F)F)nc2C(F)F)ccc1NC(=O)c1cccc(I)c1C(=O)NC(C)CS(C)(=O)=O (centres unmarked) [compound 242]	100	100
CSCC(C)(C)NC(=O)c1c(Br)cccc1C(=O)Nc1ccc(Cn2nc(C(F)(F)F)cc2C(F)(F)F)cc1C [compound 45]	100	100
CSCC(C)(C)NC(=O)c1c(Cl)cccc1C(=O)Nc1ccc(Cn2nc(C(F)(F)C(F)(F)F)nc2C(F)(F)F)cc1C [compound 149]	100	100
CSCC(C)NC(=O)c1c(I)cccc1C(=O)Nc1ccc(Cn2nc(C(F)(F)F)nc2C(F)F)cc1C (centres unmarked) [compound 238]	100	100
CSCC(C)(C)NC(=O)c1c(I)cccc1C(=O)Nc1ccc(Oc2nc(C(F)(F)F)cc(C(F)(F)F)n2)cc1C [compound 308]	100	100
Cc1cc(Cn2nc(C(F)(F)F)nc2C(F)(F)F)ccc1NC(=O)c1cccc(Br)c1C(=O)NC(C)CS(C)(=O)=O (centres unmarked) [compound 182]	100	100
Cc1cc(Cn2cc(C(F)(F)C(F)(F)C(F)(F)F)c(C(F)(F)C(F)(F)C(F)(F)F)n2)ccc1NC(=O)c1cccc(Cl)c1C(=O)N[C@@H](C)C[S+](C)[O-] (some centres unmarked) [compound 668]	100	100
CSC[C@H](C)NC(=O)c1c(Cl)cccc1C(=O)Nc1ccc(C(C)n2nc(C(F)(F)C(F)(F)F)nc2C(F)(F)F)cc1C (some centres unmarked) [compound 578]	100	100
Cc1cc(Cn2cc(C(F)(F)C(F)(F)C(F)(F)F)c(C(F)(F)C(F)(F)F)n2)ccc1NC(=O)c1cccc(I)c1C(=O)N[C@@H](C)CS(C)(=O)=O [compound 662]	100	100
Cc1cc(Cn2nc(C(F)(F)F)cc2C(F)(F)F)ccc1NC(=O)c1cccc(Br)c1C(=O)NC(C)CS(C)(=O)=O (centres unmarked) [compound 53]	100	100
CSC[C@H](C)NC(=O)c1c(I)cccc1C(=O)Nc1ccc(Cn2cc(C(F)(F)C(F)(F)F)c(C(F)(F)F)n2)cc1C [compound 640]	100	100
Cc1cc(Cn2cc(C(F)(F)C(F)(F)F)c(C(F)(F)F)n2)ccc1NC(=O)c1cccc(I)c1C(=O)N[C@@H](C)C[S+](C)[O-] (some centres unmarked) [compound 641]	100	100
Cc1cc(Cn2nc(C(F)(F)F)cc2C(F)(F)F)ccc1NC(=O)c1cccc(Br)c1C(=O)NC(C)(C)CS(C)(=O)=O [compound 47]	100	100
